In data set [1] the target is T1, TEAD4 Cys367Ser mutant (Homo sapiens, UniProt Q15561, C367S).
T1 construct: TEAD4 (217-434) Cys367Ser mutant and Yap1 (Full-length) were expressed as GST-fusion proteins; made in house; host or cells: E. coli BL-21 (DE3), pGEX-6P-1
As to the kind of experiment: Whole protein ESI mass spectrometry, adduct formation with mutant. The format is binding. The note with it: 10 μM mutant, 200 μM compound, 24 h at 4° C. As to the method: The samples were centrifuged at 20,000×g for […] to remove precipitants before being injected into an empty column on an Agilent 1200 liquid chromatography system (Agilent, Santa Clara, Calif.), using 80% Buffer A (H2O, 5 mM NH4OAc) and 20% Buffer B (ACN, 5 mM NH4OAc), and the masses were detected on an Agilent 6520 Accurate Mass Q-TOF.
FIG. 4A illustrates analysis by ESI mass spectrometry after 10 μM TEAD4 Cys367Ser mutant was incubated with 200 μM compound for 24 h at 4° C. FIG. 4B illustrates measurement of fluorescence polarization due to binding when increasing concentration of TEAD4 Cys367Ser mutant was mixed with 16 nM FAM-Yap60-99 peptide (mean±s.d.; n=3). FIG. 4C illustrates measurement of fluorescence polarization due to binding when TEAD4 Cys367Ser mutant was incubated with increasing concentration of compounds for 24 h at 4° C. followed by addition of FAM-Yap60-99 (mean±s.d.; n=3).

The next data set has as its system CTGF transcript levels. Put plainly: qRT-PCR of CTGF transcript in HEK293 cells. The class given is cell-based. The note with it: HEK293, 48 h. As to the method:
HEK293 cells co-transfected the Flag-YAP and myc-TEAD4 constructs were incubated with DMSO or the indicated amount of compounds for 48 h. Total RNA was purified using the RNeasy plus mini kit (QIAGEN, Hilden, Germany) according to the manufacturer's instructions. Complementary DNA was synthesized from 500 ng total RNA with Oligo-dT primers and the Multi-Scribe reverse transcriptase (Fisher, Waltham, Mass.) according to the manufacturer's instructions.
Real-time PCR reactions utilized 100 ng cDNA, 200 nM gene specific primers and the Sensifast No-ROX mix (Bioline, Taunton, Mass.) in a total volume of 20 μl. All measurements were carried out in triplicate using an Eppendorf Mastercycler® RealPlex2. The sequences of primers for CTGF were forward, 5′-TTGGCCCAGACCCAACTA-3 (SEQ ID NO: 1); and reverse, 5′-GCAGGAGGCGTTGTCATT-3′ (SEQ ID. NO: 2). The primer sequences for (3-actin were forward, 5′-TTGGCAATGAGCGGTTCC-3 (SEQ ID NO: 3); and reverse, 5′-[…]-3′ (SEQ ID NO: 4).
For orientation: Quantitative PCR measures a nucleic acid by following its amplification.

A further data set addresses TEAD4.Yap1 interaction (Homo sapiens, UniProt Q15561). As to the kind of experiment: Fluorescence polarization, GST-TEAD4 with FAM-Yap60-99 peptide. The note with it: for inhibition / maximum inhibition of TEAD4.Yap1 interaction: 24 h incubation at 4° C.; for t1/2^∞ (half-life of inactivation): corresponding to kinact. The arrangement: TEAD4 (217-434), TEAD4 (217-434) Cys367Ser mutant and Yap1 (Full-length) were expressed as GST-fusion proteins; made in house; host or cells: E. coli BL-21 (DE3), pGEX-6P-1. The format is binding. As for the experimental part: (§1) GST-TEAD4, GST-TEAD4 Cys367Ser mutant or HIS-TEAD2 interaction with Yap1 was investigated using a fluorescently-labeled peptide (FAM-Yap60-99), consisting of FAM-labeled TEAD-binding peptide fragment of Yap1 (FAM-[…] TVPMCLRKLPASFCKPP), which has a disulfide bridge (American Peptide, Sunnyvale, Calif.). Addition of FAM-Yap60-99 to the TEAD was followed by measurement of changes in polarization. 40 μL of 125 nM GST-TEAD4 WT or GST-TEAD4 Cys367Ser in assay buffer (PBS with 0.01% v/v Triton-X100) or 40 μL of 64 nM HIS-TEAD2 was added to a 384-well black polystyrene plate (Cat. No. 262260; Nunc, Roskilde, Denmark) and incubated with 5 μL of […] serially diluted compounds in assay buffer supplemented with 20% v/v DMSO for 24 h at 4° C. Finally, 5 μL of 160 nM FAM-Yap60-99 peptide was added, the plate centrifuged, and the polarization was measured on an Envision Multilabel Plate Reader (PerkinElmer, Waltham, Mass.) using a filter set with excitation and emission wavelengths of 485 and 535 nm, respectively. Percent inhibition was calculated as relative to a minimum inhibition control, which is without compound, and a maximum inhibition control, which is without a TEAD.
For the determination of the inhibition efficiency kinact/K1, the protein compound incubation time was varied between […], prior to the addition of the FAM-Yap60-99 peptide and fluorescence polarization measurements. The progressive decrease in TEAD activities were plotted against time for all 10 concentrations ([…]) of the compounds and the observed rate of inhibition (kobs) was calculated by fitting a simple exponential function.
The observed rate of inhibition was then plotted against the concentration of the compound and a […] function kobs=kinact[Inhibitor]/K1+[Inhibitor] was fitted to determine the kinact and K1 values.

In data set [2] the target is T1, TEAD4 Cys367Ser mutant. As to the kind of experiment: Fluorescence polarization, GST-TEAD4 Cys367Ser mutant with FAM-Yap60-99 peptide. The class given is binding. The note with it: 24 h at 4° C. As for the experimental part: as §1
For orientation: Polarisation of emitted light reports the rotation of a fluorescent probe.

A further data set deals with human astrocytes. Put plainly: MTS viability of normal astrocytes. The note with it: 10 μM, 72 h. The format is cell-based. As to the method:
Hippo signaling promotes tumor growth and invasion in a range of cancers including GBM. We investigated the effects of compounds 1, 2, and 5 on GBM cell viability using patient-derived GBM43 cells that were grown as three-dimensional spheroids (FIG. 8A). […] The potency of compounds 2 and 6 were compared to temozolomide, which is the standard of care for patients with glioblastoma. […] FIG. 11 illustrates the following: human astrocytes cells were plated 24 h before treatment in collagen I coated 96-well plates in Dulbecco's modified Eagle's medium, supplemented with 20 μg/mL insulin, 5 μg/mL N-acetylcysteine, 10% fetal bovine serum, 10 μM hydrocortisone and antibiotics; then treated with DMSO or TED-347 at indicated concentrations for 72 h at 37° C. and 5% CO2 in a humidified incubator. Stock MTS (Promega) solution (20 μL per 100 μL medium) was added to all wells of an assay, and plates were incubated at 37° C. for 4 h, and read on a BioTek Synergy 2 reader, using a test wavelength of 490 nm; mean±s.d.; n=2 replicates.

Each structure is given as a SMILES string.

Sequence of TEAD4.Yap1 interaction (Q15561 217-434): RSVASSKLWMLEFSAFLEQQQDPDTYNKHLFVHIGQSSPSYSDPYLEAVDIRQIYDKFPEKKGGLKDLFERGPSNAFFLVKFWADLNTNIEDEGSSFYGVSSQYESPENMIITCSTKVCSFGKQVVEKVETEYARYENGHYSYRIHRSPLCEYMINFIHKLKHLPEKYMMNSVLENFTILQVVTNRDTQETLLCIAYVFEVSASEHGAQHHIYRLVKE
T1 sequence (Q15561 217-434 C367S): as the sequence (Q15561 217-434) above, with C151S counted along it

In the case of `O=C(CCl)c1ncccc1Nc1cccc(C(F)(F)F)c1` [Compound 5, 2-chloro-1-(3-((3-(trifluoromethyl)phenyl)amino)pyridin-2-yl)ethanone], at TEAD4 Cys367Ser mutant [1], the “adduct formation with TEAD4 Cys367Ser mutant” value is “formed an adduct”. In addition, the “CTGF transcript levels versus control cells” value with CTGF transcript levels was “significant reduction”. On TEAD4.Yap1 interaction, the “inhibition / maximum inhibition of TEAD4.Yap1 interaction” value was 81% and the “t1/2^∞ (half-life of inactivation)” value turned out to be 14.3 h. Moreover, the “inhibition of TEAD4 Cys367Ser mutant binding to the peptide” value on TEAD4 Cys367Ser mutant [2] is “also inhibited the TEAD4 Cys367Ser mutant”.

Consider `O=C(CCl)c1ccccc1Nc1cccc(C(F)(F)F)c1` [Compound 2, 2-chloro-1-(2-((3-(trifluoromethyl)phenyl)amino)phenyl)ethanone], for which, on TEAD4 Cys367Ser mutant [1], the “adduct formation with TEAD4 Cys367Ser mutant” value is “failed to form an adduct”. The “CTGF transcript levels versus control cells” value in the data set on CTGF transcript levels was “significant reduction”. In addition, the “reversibility of inhibition after dialysis” value at TEAD4.Yap1 interaction (50 μM, 24 h at 4° C., then dialyzed against buffer 24 h at 4° C.) is “irreversible inhibitor”. In addition, on TEAD4.Yap1 interaction, the “inhibition / maximum inhibition of TEAD4.Yap1 interaction” value stood at 53% and the “t1/2^∞ (half-life of inactivation)” value is on record as 18.2 h. Further, the “maximum inhibition of TEAD4” value at TEAD4.Yap1 interaction (48 h incubation at 4° C.) was determined as 80%. Moreover, the “effect on cell viability of non-transformed normal astrocytes” value with human astrocytes was “did not show any effect”. Besides, at TEAD4 Cys367Ser mutant [2], the “inhibition of TEAD4 Cys367Ser mutant binding to the peptide” value is “did not inhibit”.

The record behind these values is patent US20210403415A1, “COMPOUNDS AND METHODS TO ATTENUATE TUMOR PROGRESSION AND METASTASIS” (THE TRUSTEES OF INDIANA UNIVERSITY, priority 2018, published 2021).
